This is an account of results in ChEMBL document CHEMBL1144906, “Characterization of the 5-HT(7) receptor. Determination of the pharmacophore for 5-HT(7) receptor agonism and CoMFA-based modeling of the agonist binding site” (J Med Chem, 2003).

The target of experiment [1] is 5-hydroxytryptamine receptor 7 (Rattus norvegicus, UniProt P32305). Put plainly: Binding affinity at rat 5-hydroxytryptamine 7 receptor.
The target of experiment [2] is 5-hydroxytryptamine receptor 7 (Rattus norvegicus) (UniProt P32305). Briefly: Agonistic activity against rat 5-HT7 adenyl cyclase expressed by HEK293 cells. It is filed as functional, cell-based.
For experiment [3] the target is unchanged. Briefly: Agonistic activity against rat 5-HT7 adenyl cyclase expressed in HEK293 cells; Active. It is filed as functional, cell-based.
For experiment [4] the target is unchanged. The settings on record: HEK293.

Active and inactive are the calls of the source. No cut-off for these calls is given here.

Chain of 5-hydroxytryptamine receptor 7 (Rattus norvegicus) (P32305 whole entry): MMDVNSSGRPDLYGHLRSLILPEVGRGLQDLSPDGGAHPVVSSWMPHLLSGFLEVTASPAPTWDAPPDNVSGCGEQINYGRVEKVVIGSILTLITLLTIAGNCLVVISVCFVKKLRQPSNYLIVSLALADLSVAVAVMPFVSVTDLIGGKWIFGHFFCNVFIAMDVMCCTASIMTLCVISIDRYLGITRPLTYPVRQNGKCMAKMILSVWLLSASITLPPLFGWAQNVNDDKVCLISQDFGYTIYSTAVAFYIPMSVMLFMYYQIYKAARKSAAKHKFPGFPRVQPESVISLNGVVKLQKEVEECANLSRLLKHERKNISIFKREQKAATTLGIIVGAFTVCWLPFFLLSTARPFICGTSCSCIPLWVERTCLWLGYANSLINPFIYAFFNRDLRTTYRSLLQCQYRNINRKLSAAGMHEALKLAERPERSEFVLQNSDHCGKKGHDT
Chain of 5-hydroxytryptamine receptor 7 (P32305 whole entry): as above

Consider `COc1cccc2c1C[C@H](N)CC2`, for which the Ki in experiment [1] is 123 nM. Besides, in experiment [2], the Increase turned out to be 73%. Consider `Cc1[nH]c(C)c(-c2cccc3c2CC[C@H](N(C)C)C3)c1C`, for which, in experiment [1], the affinity corresponds to a Ki of 0.832 nM. The Increase entry in experiment [3] is “Active”. In experiment [1], `CCCN(CCC)[C@@H]1CCc2cccc(O)c2C1` showed a Ki of 45.7 nM. The Increase result in experiment [3] is “Active”. Take `Cc1c(NC2=NCCN2)cccc1-c1ccccc1`: in experiment [3], the Increase result was “Active”. Same read-out and setting: the value for `c1ccc2c(N3CCNCC3)cccc2c1` was “Active”.

For the compound `NCCc1c[nH]c2ccc(O)cc12`, the Increase result in experiment [4] is “Active”.

As for `COc1ccccc1N1CCNCC1`, in experiment [3], the Increase result was “Active”. In experiment [1], `CCCN(CCC)[C@H]1CCc2cccc(OC)c2C1` had a Ki of 339 nM. In experiment [2], the Increase is 99%. For `COc1ccc2[nH]cc(CCN)c2c1`, in experiment [3], the Increase entry is “Active”. In the case of `CN(C)[C@H]1CCc2c(cccc2-c2cccc3ccccc23)C1`, the Ki in experiment [1] is 0.251 nM. Further, in experiment [3], the Increase result is “Active”.

For the compound `CCN(CC)C(=O)[C@@H]1C=C2c3cccc4[nH]cc(c34)C[C@H]2N(C)C1`, the Increase result in experiment [3] is “Active”. As to `NCCc1c[nH]c2ccc(C(N)=O)cc12`, the Increase in experiment [2] was 100%. Take `CN(C)CCc1c[nH]c2ccc(O)cc12` [BUFOTENINE]: the Ki in experiment [1] is 7.94 nM. Moreover, the Increase result in experiment [3] is “Active”. The compound `COc1ccc2c(c1)CC[C@@H](N)C2` had a Ki in experiment [1] of 1580 nM. In experiment [2], the Increase was found to be 58%. Consider `CCN(CC)[C@@H]1CCc2cccc(OC)c2C1`, for which the inhibition constant (Ki) in experiment [1] was 87.1 nM. In experiment [2], the Increase stood at 73%.

Turning to `COc1ccc2[nH]cc(CCN3CCCC3)c2c1`, in experiment [1], the Ki was 631 nM. The compound further returned an Increase in experiment [2] of 39%. In turn, `CCCN(CCC)[C@@H]1CCc2cccc(OC)c2C1` showed a Ki in experiment [1] of 33.9 nM. Besides, the Increase in experiment [2] was found to be 92%.

As for `COc1ccc2[nH]cc(CCN(C)C)c2c1` [MEBUFOTENIN], the Ki in experiment [1] is 39.8 nM. In addition, the Increase in experiment [2] is 92%.

On to `COc1ccc2[nH]c(C)c(CCN(C)C)c2c1`, for which the inhibition constant (Ki) in experiment [1] is 1120 nM. Besides, the Increase in experiment [2] stood at 17%. In experiment [1], `COc1ccc2cccc(N3CCNCC3)c2c1` gave a Ki of 20.4 nM. In experiment [2], this compound had an Increase of 25%.
